According to publication PMC12528727 (Nature Communications, 2025):
Where no end group is shown, it is not given here.

Tests used:
[1] = test system: Candida albicans ATCC10231; assay: Antifungal activity assay at 128 µM; type: cell-based; conditions: 128 µM peptide; growth curves (Supplementary Fig. 11)
NIH/3T3 cells = assay: Cytotoxicity assay; type: cell-based, murine; conditions: 128 µM peptide, 24 h, CCK-8, absorbance 450 nm, n = 3
[2] = test system: Micrococcus luteus ATCC4698; assay: Antibacterial activity screen at 128 µM; conditions: 128 µM peptide
Bacillus subtilis WB600 = assay: Antibacterial activity screen at 128 µM; conditions: 128 µM peptide
E. coli z44 = conditions: two-fold dilutions 128 µM to 1 µM; CaMHB, 37 °C, 16 h, OD600; n = 3
S. aureus 09057 = conditions: two-fold dilutions 128 µM to 1 µM; CaMHB, 37 °C, 16 h, OD600; n = 3
[3] = ABTS+ radical scavenging assay; type: biochemical; conditions: 1 mg/mL c_AMPs

In the case of CLCGGKGKKLGKG [C4], the “time for which growth of C. albicans ATCC10231 was inhibited post treatment” value [1] is reported as “up to 2 h”.

Work on GKGAKKGLKGLKG [B3] yielded a cytotoxicity rate (NIH/3T3 cells) of 6.97%.

For GLCGKGGKCCCGC [C1], the “inhibition of M. luteus ATCC4698 growth” value [2] was “completely inhibit” and the “effect on B. subtilis WB600” value (Bacillus subtilis WB600) was “negatively impacted”.

In the case of IRPWRKPRWPWKR [D2], the “minimum inhibitory concentration (MIC), E. coli z44” value (E. coli z44) is reported as 8 µM and the “MIC, S. aureus 09057” value (S. aureus 09057) is reported as 32 µM.

With KKGLGGKLLACKG [A3] the “ABTS^+ free radical scavenging rate” value [3] was at least 90%, the “inhibition of M. luteus ATCC4698 growth” value [2] was “completely inhibit” and the “time for which growth of B. subtilis WB600 was halted post treatment” value (Bacillus subtilis WB600; growth curves (Supplementary Fig. 11), no inhibition at 16 h) was “up to 3 h”.

For KKPRPWPWKRRKK [D4], the “ABTS^+ free radical scavenging rate” value [3] was 72%.

For KLKGLLGGKKKLK [A1], the “inhibition of M. luteus ATCC4698 growth” value [2] was “completely inhibit”.
